This note sets out measurements from paper PMC7265434, “Zika Virus NS3 Protease Pharmacophore Anchor Model and Drug Discovery” (Scientific Reports, 2020).

In the assay the target is T1, ZIKV NS2B/NS3 protease (Zika virus, UniProt Q32ZE1).
T1 construct: cut from ZIKV genome polyprotein
The assay is described as follows: fluorogenic protease assay, AMC release. In kind it is biochemical.

T1 sequence (Q32ZE1 1499-1668): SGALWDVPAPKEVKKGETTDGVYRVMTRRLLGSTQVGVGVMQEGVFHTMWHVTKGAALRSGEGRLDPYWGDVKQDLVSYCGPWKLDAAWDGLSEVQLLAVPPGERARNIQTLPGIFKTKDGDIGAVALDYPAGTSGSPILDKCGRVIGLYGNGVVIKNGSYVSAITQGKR
T1 sequence (Q32ZE1 1417-1463): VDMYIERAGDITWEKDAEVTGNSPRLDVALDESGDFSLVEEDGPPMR

For the molecule `C=C[C@@H]1C[C@]1(NC(=O)[C@@H]1C[C@@H](Oc2ncc(OC)c3ccc(Cl)cc23)CN1C(=O)[C@@H](NC(=O)OC(C)(C)C)C(C)(C)C)C(=O)NS(=O)(=O)C1CC1` [Asunaprevir], the IC50 (in general, the point on the concentration scale where inhibition reaches its midpoint) amounted to 6 µM. The same measure for `COc1ccc2c(O[C@@H]3C[C@H]4C(=O)N[C@]5(C(=O)NS(=O)(=O)C6CC6)C[C@H]5/C=C\CCCCN(C)C(=O)[C@@H]4C3)cc(-c3nc(C(C)C)cs3)nc2c1C` [Simeprevir]: 2.6 µM.
